# According to article PMC10178848, “Modulating fast skeletal muscle contraction protects skeletal muscle in animal models of Duchenne muscular dystrophy” (The Journal of Clinical Investigation, 2023):
# Where two headings read alike, the source gives them in different places.
# Tested on: GRMD plasma proteins
# Type: in vivo, dog
# [1] = EDG-5506 treatment to GRMD baseline, Decreased in GRMD
smiles,measurement,setting,value
O=c1ccc(-c2cnc(OCC(F)(F)F)nc2)nn1Cc1cncc(F)c1 [EDG-5506],Change from GRMD Baseline (fraction),"3-hydroxy-3-methylglutaryl-coenzyme A reductase (HMGCR), EDG-5506 treatment to GRMD baseline",0.149 fraction
same,Change from GRMD Baseline (fraction),"3-hydroxy-3-methylglutaryl-coenzyme A reductase (HMGCR), Post-Treatment to GRMD baseline",-0.0053 fraction
same,Change from GRMD Baseline (fraction),"Annexin A5 (ANXA5), EDG-5506 treatment to GRMD baseline",0.0604 fraction
same,Change from GRMD Baseline (fraction),"Annexin A5 (ANXA5), Post-Treatment to GRMD baseline",-0.0309 fraction
same,Change from GRMD Baseline (fraction),"Apolipoprotein M (APOM), EDG-5506 treatment to GRMD baseline",0.1027 fraction
same,Change from GRMD Baseline (fraction),"Apolipoprotein M (APOM), Post-Treatment to GRMD baseline",-0.1149 fraction
same,Change from GRMD Baseline (fraction),"Bactericidal permeability-increasing protein (BPI), EDG-5506 treatment to GRMD baseline",0.0745 fraction
same,Change from GRMD Baseline (fraction),"Bactericidal permeability-increasing protein (BPI), Post-Treatment to GRMD baseline",0.1503 fraction
same,Change from GRMD Baseline (fraction),"Basigin (BSG), EDG-5506 treatment to GRMD baseline",0.1541 fraction
same,Change from GRMD Baseline (fraction),"Basigin (BSG), Post-Treatment to GRMD baseline",-0.07 fraction
same,Change from GRMD Baseline (fraction),"Brain-derived neurotrophic factor (BDNF), EDG-5506 treatment to GRMD baseline",0.0859 fraction
same,Change from GRMD Baseline (fraction),"Brain-derived neurotrophic factor (BDNF), Post-Treatment to GRMD baseline",-0.07 fraction
same,Change from GRMD Baseline (fraction),"Calcium/calmodulin-dependent 3',5'-cyclic nucleotide phosphodiesterase 1A (PDE1A), EDG-5506 treatment to GRMD baseline",0.0363 fraction
same,Change from GRMD Baseline (fraction),"Calcium/calmodulin-dependent 3',5'-cyclic nucleotide phosphodiesterase 1A (PDE1A), Post-Treatment to GRMD baseline",-0.0044 fraction
same,Change from GRMD Baseline (fraction),"Carbohydrate sulfotransferase 15 (CHST15), EDG-5506 treatment to GRMD baseline",0.0872 fraction
same,Change from GRMD Baseline (fraction),"Carbohydrate sulfotransferase 15 (CHST15), Post-Treatment to GRMD baseline",-0.1346 fraction
same,Change from GRMD Baseline (fraction),"Carbonic anhydrase 7 (CA7), EDG-5506 treatment to GRMD baseline",0.1779 fraction
same,Change from GRMD Baseline (fraction),"Carbonic anhydrase 7 (CA7), Post-Treatment to GRMD baseline",0.1249 fraction
same,Change from GRMD Baseline (fraction),"Cathepsin G (CTSG), EDG-5506 treatment to GRMD baseline",0.0969 fraction
same,Change from GRMD Baseline (fraction),"Cathepsin G (CTSG), Post-Treatment to GRMD baseline",0.1704 fraction
same,Change from GRMD Baseline (fraction),"Cathepsin H (CTSH), EDG-5506 treatment to GRMD baseline",0.1349 fraction
same,Change from GRMD Baseline (fraction),"Cathepsin H (CTSH), Post-Treatment to GRMD baseline",-0.0348 fraction
same,Change from GRMD Baseline (fraction),"Ciliary neurotrophic factor (CNTF), EDG-5506 treatment to GRMD baseline",0.2366 fraction
same,Change from GRMD Baseline (fraction),"Ciliary neurotrophic factor (CNTF), Post-Treatment to GRMD baseline",0.313 fraction
same,Change from GRMD Baseline (fraction),"Collectin-11 (COLEC11), EDG-5506 treatment to GRMD baseline",-0.1017 fraction
same,Change from GRMD Baseline (fraction),"Collectin-11 (COLEC11), Post-Treatment to GRMD baseline",-0.0756 fraction
same,Change from GRMD Baseline (fraction),"Complement component C7 (C7), EDG-5506 treatment to GRMD baseline",0.118 fraction
same,Change from GRMD Baseline (fraction),"Complement component C7 (C7), Post-Treatment to GRMD baseline",0.1005 fraction
same,Change from GRMD Baseline (fraction),"Contactin-2 (CNTN2), EDG-5506 treatment to GRMD baseline",0.1036 fraction
same,Change from GRMD Baseline (fraction),"Contactin-2 (CNTN2), Post-Treatment to GRMD baseline",-0.068 fraction
same,Change from GRMD Baseline (fraction),"Cytotoxic T-lymphocyte protein 4 (CTLA4), EDG-5506 treatment to GRMD baseline",0.1272 fraction
same,Change from GRMD Baseline (fraction),"Cytotoxic T-lymphocyte protein 4 (CTLA4), Post-Treatment to GRMD baseline",0.041 fraction
same,Change from GRMD Baseline (fraction),"Delta-like protein 4 (DLL4), EDG-5506 treatment to GRMD baseline",0.0825 fraction
same,Change from GRMD Baseline (fraction),"Delta-like protein 4 (DLL4), Post-Treatment to GRMD baseline",-0.0212 fraction
same,Change from GRMD Baseline (fraction),"Dickkopf-related protein 3 (DKK3), EDG-5506 treatment to GRMD baseline",0.0897 fraction
same,Change from GRMD Baseline (fraction),"Dickkopf-related protein 3 (DKK3), Post-Treatment to GRMD baseline",-0.0042 fraction
same,"3-hydroxyisobutyrate dehydrogenase, mitochondrial (HIBADH): Change from GRMD Baseline (fraction)",[1],0.1537 fraction
same,14-3-3 protein beta/alpha (YWHAB): Change from GRMD Baseline (fraction),[1],-0.0886 fraction
same,14-3-3 protein sigma (SFN): Change from GRMD Baseline (fraction),[1],0.3172 fraction
same,72 kDa type IV collagenase (MMP2): Change from GRMD Baseline (fraction),[1],0.1734 fraction
same,Adrenomedullin (ADM): Change from GRMD Baseline (fraction),[1],-0.0855 fraction
same,Aggrecan core protein (ACAN): Change from GRMD Baseline (fraction),[1],0.167 fraction
same,Alpha-synuclein (SNCA): Change from GRMD Baseline (fraction),[1],0.0584 fraction
same,Apolipoprotein B (APOB): Change from GRMD Baseline (fraction),[1],0.074 fraction
same,Appetite-regulating hormone (GHRL): Change from GRMD Baseline (fraction),[1],0.1979 fraction
same,Atrial natriuretic factor (NPPA): Change from GRMD Baseline (fraction),[1],0.1398 fraction
same,BDNF/NT-3 growth factors receptor (NTRK2): Change from GRMD Baseline (fraction),[1],0.1937 fraction
same,BH3-interacting domain death agonist (BID): Change from GRMD Baseline (fraction),[1],0.1126 fraction
same,Bcl-2-related protein A1 (BCL2A1): Change from GRMD Baseline (fraction),[1],-0.0911 fraction
same,Bone morphogenetic protein 6 (BMP6): Change from GRMD Baseline (fraction),[1],0.2555 fraction
same,Bone morphogenetic protein 10 (BMP10): Change from GRMD Baseline (fraction),[1],0.1398 fraction
same,C-X-C motif chemokine 10 (CXCL10): Change from GRMD Baseline (fraction),[1],0.1922 fraction
same,C-type mannose receptor 2 (MRC2): Change from GRMD Baseline (fraction),[1],0.1728 fraction
same,CD166 antigen (ALCAM): Change from GRMD Baseline (fraction),[1],0.2333 fraction
same,Cadherin-5 (CDH5): Change from GRMD Baseline (fraction),[1],0.1109 fraction
same,Carboxypeptidase E (CPE): Change from GRMD Baseline (fraction),[1],0.0406 fraction
same,Cell adhesion molecule 1 (CADM1): Change from GRMD Baseline (fraction),[1],0.0424 fraction
same,Chromogranin-A (CHGA): Change from GRMD Baseline (fraction),[1],0.2322 fraction
same,Ciliary neurotrophic factor receptor subunit alpha (CNTFR): Change from GRMD Baseline (fraction),[1],0.1045 fraction
same,Ck-beta-8-1 (CCL23): Change from GRMD Baseline (fraction),[1],0.0708 fraction
same,Coiled-coil domain-containing protein 80 (CCDC80): Change from GRMD Baseline (fraction),[1],-0.0672 fraction
same,Collagen alpha-1(VIII) chain (COL8A1): Change from GRMD Baseline (fraction),[1],0.2128 fraction
same,Collagenase 3 (MMP13): Change from GRMD Baseline (fraction),[1],-0.0939 fraction
same,Collectin-12 (COLEC12): Change from GRMD Baseline (fraction),[1],0.2006 fraction
same,Complement component C1q receptor (CD93): Change from GRMD Baseline (fraction),[1],0.1785 fraction
same,Complement decay-accelerating factor (CD55): Change from GRMD Baseline (fraction),[1],-0.0957 fraction
same,Contactin-1 (CNTN1): Change from GRMD Baseline (fraction),[1],0.0923 fraction
same,Corticotropin (POMC): Change from GRMD Baseline (fraction),[1],-0.096 fraction
same,Cytotoxic and regulatory T-cell molecule (CRTAM): Change from GRMD Baseline (fraction),[1],-0.015 fraction
same,Dickkopf-related protein 1 (DKK1): Change from GRMD Baseline (fraction),[1],0.2889 fraction
same,Dickkopf-related protein 4 (DKK4): Change from GRMD Baseline (fraction),[1],0.1406 fraction
same,E3 ubiquitin-protein ligase ZNRF3 (ZNRF3): Change from GRMD Baseline (fraction),[1],-0.0555 fraction
same,Ephrin type-A receptor 5 (EPHA5): Change from GRMD Baseline (fraction),[1],0.0759 fraction
same,Ephrin-A2 (EFNA2): Change from GRMD Baseline (fraction),[1],0.0899 fraction
same,Ephrin-A5 (EFNA5): Change from GRMD Baseline (fraction),[1],0.0839 fraction
same,Epidermal growth factor receptor (EGFR): Change from GRMD Baseline (fraction),[1],0.2223 fraction
same,Estradiol 17-beta-dehydrogenase 1 (HSD17B1): Change from GRMD Baseline (fraction),[1],0.1223 fraction
same,"Fatty acid-binding protein, epidermal (FABP5): Change from GRMD Baseline (fraction)",[1],0.0517 fraction
same,Fc receptor-like protein 3 (FCRL3): Change from GRMD Baseline (fraction),[1],-0.0177 fraction
same,GDNF family receptor alpha-2 (GFRA2): Change from GRMD Baseline (fraction),[1],0.1299 fraction
same,Galectin-8 (LGALS8): Change from GRMD Baseline (fraction),[1],0.0779 fraction
same,Galectin-9 (LGALS9): Change from GRMD Baseline (fraction),[1],-0.04 fraction
same,Gamma-enolase (ENO2): Change from GRMD Baseline (fraction),[1],0.1938 fraction
same,Gastrin-releasing peptide (GRP): Change from GRMD Baseline (fraction),[1],0.0715 fraction
same,Glutamate carboxypeptidase 2 (FOLH1): Change from GRMD Baseline (fraction),[1],0.301 fraction
same,Glypican-2 (GPC2): Change from GRMD Baseline (fraction),[1],0.2818 fraction
same,Gremlin-1 (GREM1): Change from GRMD Baseline (fraction),[1],0.117 fraction
same,Growth/differentiation factor 8 (MSTN): Change from GRMD Baseline (fraction),[1],0.0197 fraction
same,Growth/differentiation factor 11/8 (GDF11 MSTN): Change from GRMD Baseline (fraction),[1],0.039 fraction
same,Hemoglobin (HBA1 HBB): Change from GRMD Baseline (fraction),[1],-0.194 fraction
same,Heparin cofactor 2 (SERPIND1): Change from GRMD Baseline (fraction),[1],0.095 fraction
same,Hepatitis A virus cellular receptor 2 (HAVCR2): Change from GRMD Baseline (fraction),[1],-0.0356 fraction
same,High affinity immunoglobulin gamma Fc receptor I (FCGR1A): Change from GRMD Baseline (fraction),[1],0.1553 fraction
same,Histone-lysine N-methyltransferase EHMT2 (EHMT2): Change from GRMD Baseline (fraction),[1],0.3323 fraction
same,Hyaluronan and proteoglycan link protein 1 (HAPLN1): Change from GRMD Baseline (fraction),[1],0.0551 fraction
same,Insulin-like growth factor 1 receptor (IGF1R): Change from GRMD Baseline (fraction),[1],0.1691 fraction
same,Integrin alpha-V: beta-5 complex (ITGAV ITGB5): Change from GRMD Baseline (fraction),[1],-0.051 fraction
same,Interleukin-4 receptor subunit alpha (IL4R): Change from GRMD Baseline (fraction),[1],0.1823 fraction
same,Interleukin-18-binding protein (IL18BP): Change from GRMD Baseline (fraction),[1],0.0143 fraction
same,Interstitial collagenase (MMP1): Change from GRMD Baseline (fraction),[1],0.0861 fraction
same,Leucine-rich repeat transmembrane neuronal protein 3 (LRRTM3): Change from GRMD Baseline (fraction),[1],0.2512 fraction
same,Limbic system-associated membrane protein (LSAMP): Change from GRMD Baseline (fraction),[1],0.1355 fraction
same,Lymphocyte activation gene 3 protein (LAG3): Change from GRMD Baseline (fraction),[1],0.164 fraction
same,Lysosome membrane protein 2 (SCARB2): Change from GRMD Baseline (fraction),[1],0.1336 fraction
same,MHC class I polypeptide-related sequence B (MICB): Change from GRMD Baseline (fraction),[1],0.2058 fraction
same,Matrilin-2 (MATN2): Change from GRMD Baseline (fraction),[1],-0.0022 fraction
same,Melanoma-derived growth regulatory protein (MIA): Change from GRMD Baseline (fraction),[1],0.1875 fraction
same,Moesin (MSN): Change from GRMD Baseline (fraction),[1],-0.082 fraction
same,Muellerian-inhibiting factor (AMH): Change from GRMD Baseline (fraction),[1],0.0498 fraction
same,NKG2D ligand 1 (ULBP1): Change from GRMD Baseline (fraction),[1],-0.0534 fraction
same,NT-3 growth factor receptor (NTRK3): Change from GRMD Baseline (fraction),[1],0.1168 fraction
same,Netrin receptor UNC5C (UNC5C): Change from GRMD Baseline (fraction),[1],0.03 fraction
same,Neurogenic locus notch homolog protein 2 (NOTCH2): Change from GRMD Baseline (fraction),[1],0.2188 fraction
same,Neurogenic locus notch homolog protein 3 (NOTCH3): Change from GRMD Baseline (fraction),[1],0.0936 fraction
same,Nuclear receptor subfamily 1 group D member 1 (NR1D1): Change from GRMD Baseline (fraction),[1],0.048 fraction
same,Phospholipase A2 (PLA2G1B): Change from GRMD Baseline (fraction),[1],0.0754 fraction
same,Placenta growth factor (PGF): Change from GRMD Baseline (fraction),[1],-0.066 fraction
same,Plasminogen (PLG): Change from GRMD Baseline (fraction),[1],0.2052 fraction
same,PolyUbiquitin K63-linked (UBC): Change from GRMD Baseline (fraction),[1],0.2167 fraction
